Consider 2 compounds from article PMC4336625 (ACS Chemical Biology, 2014).

Where only a bound is given, the exact number is not on record here.

For one assay, the target named is PldA (Pseudomonas aeruginosa, UniProt Q9HYC2). Type of assay: biochemical.
Assay [1] has as its target recombinant human NAPE-PLD (Homo sapiens, UniProt Q6IQ20). The assay is described as follows: NAPE-PLD activity assay. Type of assay: biochemical. The conditions noted are these: 20 μM.
The target of assay [2] is T1, PLD1 (Homo sapiens, UniProt Q13393).
T1 sequence (Q13393 1-1074): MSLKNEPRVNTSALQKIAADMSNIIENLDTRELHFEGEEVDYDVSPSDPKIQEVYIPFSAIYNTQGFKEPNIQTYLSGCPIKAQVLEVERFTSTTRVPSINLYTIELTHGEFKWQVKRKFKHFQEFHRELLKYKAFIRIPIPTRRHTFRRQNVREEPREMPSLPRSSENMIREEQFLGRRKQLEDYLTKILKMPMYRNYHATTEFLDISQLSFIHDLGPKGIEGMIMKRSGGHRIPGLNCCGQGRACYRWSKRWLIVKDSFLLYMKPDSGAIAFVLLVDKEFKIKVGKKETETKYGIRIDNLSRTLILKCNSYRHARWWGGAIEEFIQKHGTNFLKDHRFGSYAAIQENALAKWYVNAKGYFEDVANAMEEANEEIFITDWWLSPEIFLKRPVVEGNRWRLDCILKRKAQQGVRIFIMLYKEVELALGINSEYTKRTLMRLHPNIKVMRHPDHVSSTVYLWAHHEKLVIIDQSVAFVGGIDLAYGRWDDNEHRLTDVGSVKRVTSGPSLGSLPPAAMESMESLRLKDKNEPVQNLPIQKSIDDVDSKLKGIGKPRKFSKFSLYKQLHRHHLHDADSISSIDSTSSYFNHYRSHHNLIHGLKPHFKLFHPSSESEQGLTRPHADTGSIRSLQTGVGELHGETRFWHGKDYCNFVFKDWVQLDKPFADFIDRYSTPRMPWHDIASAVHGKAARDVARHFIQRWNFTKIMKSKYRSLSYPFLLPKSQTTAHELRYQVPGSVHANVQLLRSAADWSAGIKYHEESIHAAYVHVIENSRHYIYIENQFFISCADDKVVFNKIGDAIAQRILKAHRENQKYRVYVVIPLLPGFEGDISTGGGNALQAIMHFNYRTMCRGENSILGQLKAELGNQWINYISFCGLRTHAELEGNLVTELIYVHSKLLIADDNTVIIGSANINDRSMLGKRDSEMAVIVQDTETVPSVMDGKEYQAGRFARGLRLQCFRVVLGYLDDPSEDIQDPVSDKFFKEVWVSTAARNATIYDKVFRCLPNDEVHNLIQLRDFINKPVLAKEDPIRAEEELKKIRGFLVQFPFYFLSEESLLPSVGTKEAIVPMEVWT
The conditions noted are these: cited from earlier work.

The target of another assay is PLD2 (Homo sapiens, UniProt O14939). The conditions noted are these: cited from earlier work.
Chain of PLD2 (O14939 whole entry): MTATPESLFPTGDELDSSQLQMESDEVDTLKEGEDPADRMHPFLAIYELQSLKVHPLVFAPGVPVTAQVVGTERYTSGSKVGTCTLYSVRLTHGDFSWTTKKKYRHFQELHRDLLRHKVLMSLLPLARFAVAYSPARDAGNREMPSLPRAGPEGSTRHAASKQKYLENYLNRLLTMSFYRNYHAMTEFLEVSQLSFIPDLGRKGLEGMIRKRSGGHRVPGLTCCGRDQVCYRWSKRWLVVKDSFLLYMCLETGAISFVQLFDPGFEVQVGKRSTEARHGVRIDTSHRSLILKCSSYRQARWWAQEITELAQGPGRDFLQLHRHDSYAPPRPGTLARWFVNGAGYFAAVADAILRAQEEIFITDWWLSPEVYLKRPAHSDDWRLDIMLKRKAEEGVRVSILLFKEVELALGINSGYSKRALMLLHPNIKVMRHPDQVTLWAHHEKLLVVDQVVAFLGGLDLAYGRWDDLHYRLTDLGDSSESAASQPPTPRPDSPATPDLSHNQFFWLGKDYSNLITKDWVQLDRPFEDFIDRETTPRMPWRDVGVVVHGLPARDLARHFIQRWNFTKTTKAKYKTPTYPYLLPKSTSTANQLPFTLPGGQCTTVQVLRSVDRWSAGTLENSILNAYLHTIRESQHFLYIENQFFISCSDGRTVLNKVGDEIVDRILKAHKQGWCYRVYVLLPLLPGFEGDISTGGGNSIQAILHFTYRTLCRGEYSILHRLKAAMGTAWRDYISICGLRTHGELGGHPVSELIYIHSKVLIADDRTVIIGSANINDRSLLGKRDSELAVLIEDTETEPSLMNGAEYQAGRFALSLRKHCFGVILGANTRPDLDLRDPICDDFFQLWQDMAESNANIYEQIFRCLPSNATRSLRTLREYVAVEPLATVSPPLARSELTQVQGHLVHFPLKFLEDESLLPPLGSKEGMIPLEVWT
The target of assay [3] is T1, PLD1. Type of assay: cell-based. The conditions noted are these: read-out: mammalian PLD1 IC50.

Chain of recombinant human NAPE-PLD (Q6IQ20 whole entry): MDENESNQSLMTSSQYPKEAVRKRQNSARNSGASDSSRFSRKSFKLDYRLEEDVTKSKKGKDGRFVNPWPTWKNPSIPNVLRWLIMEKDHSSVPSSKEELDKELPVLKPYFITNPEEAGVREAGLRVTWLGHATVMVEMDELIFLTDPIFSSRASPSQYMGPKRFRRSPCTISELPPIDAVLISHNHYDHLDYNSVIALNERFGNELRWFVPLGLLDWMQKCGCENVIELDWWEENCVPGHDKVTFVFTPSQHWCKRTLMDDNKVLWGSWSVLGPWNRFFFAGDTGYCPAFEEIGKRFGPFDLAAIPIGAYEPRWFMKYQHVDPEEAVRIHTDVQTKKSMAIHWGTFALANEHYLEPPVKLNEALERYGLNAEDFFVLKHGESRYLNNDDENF
Chain of PldA (Q9HYC2 1-1099): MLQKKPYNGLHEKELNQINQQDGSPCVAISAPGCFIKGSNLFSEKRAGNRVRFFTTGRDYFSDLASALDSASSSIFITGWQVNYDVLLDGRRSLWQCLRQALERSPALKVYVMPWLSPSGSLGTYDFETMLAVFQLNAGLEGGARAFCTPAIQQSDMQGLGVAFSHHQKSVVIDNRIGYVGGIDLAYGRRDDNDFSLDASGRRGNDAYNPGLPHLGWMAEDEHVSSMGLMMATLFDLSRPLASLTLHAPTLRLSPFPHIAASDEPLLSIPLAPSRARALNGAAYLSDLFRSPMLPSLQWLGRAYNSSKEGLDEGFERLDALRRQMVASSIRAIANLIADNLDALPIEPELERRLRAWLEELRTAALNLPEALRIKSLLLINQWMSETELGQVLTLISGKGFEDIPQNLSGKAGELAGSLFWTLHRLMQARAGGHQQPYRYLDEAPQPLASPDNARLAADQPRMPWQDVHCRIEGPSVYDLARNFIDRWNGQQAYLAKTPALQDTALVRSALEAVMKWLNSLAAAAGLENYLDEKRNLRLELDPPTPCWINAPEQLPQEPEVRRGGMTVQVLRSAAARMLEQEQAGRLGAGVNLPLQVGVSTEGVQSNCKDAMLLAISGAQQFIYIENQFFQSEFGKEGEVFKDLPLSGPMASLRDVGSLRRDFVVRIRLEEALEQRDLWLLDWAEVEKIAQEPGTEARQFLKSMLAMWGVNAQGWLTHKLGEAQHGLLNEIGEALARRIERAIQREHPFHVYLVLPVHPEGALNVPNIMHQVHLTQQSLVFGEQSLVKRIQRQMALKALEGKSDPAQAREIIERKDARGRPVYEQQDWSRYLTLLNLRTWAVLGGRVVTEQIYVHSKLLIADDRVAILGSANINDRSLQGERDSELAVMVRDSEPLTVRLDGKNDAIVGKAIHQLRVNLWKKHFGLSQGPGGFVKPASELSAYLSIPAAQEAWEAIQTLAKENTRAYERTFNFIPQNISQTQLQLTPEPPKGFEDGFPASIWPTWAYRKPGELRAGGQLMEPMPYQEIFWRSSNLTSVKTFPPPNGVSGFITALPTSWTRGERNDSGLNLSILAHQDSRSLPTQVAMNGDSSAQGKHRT

With `O=C(c1ccc(OCCN2CCCCC2)cc1)c1c(-c2ccc(O)cc2)sc2cc(O)ccc12` [Compound 7, raloxifene], on PldA, the “fold more potent at PldA than inhibitors 2, 3 and 1” value was 5- to 10 fold. For the same compound, the “inhibition of NAPE-PLD activity, single point” value in assay [1] was “not to inhibit”.

Turning to `CC/C(=C(\c1ccccc1)c1ccc(OCCN(C)C)cc1)c1ccccc1` [Compound 8, tamoxifen], the “PLD1 IC50” value at PLD1 [2] is on record as “no effect”. For the same compound, the “PLD2 IC50” value at PLD2 is recorded as “stimulated”. The IC50 at PLD1 [3] is over 20 µM.

By IC50 is commonly meant the concentration needed to halve the response being measured.
